# Patent US9981972B2, “N-hydroxy bicyclic hydantoin carbamates as tools for identification of serine hydrolase targets” (ABIDE THERAPEUTICS, INC., priority 2014, dated 2018)
# pIC50: −log10 of the molar value.
# Assays:
# [1] = Stability in PBS; format: physicochemical; conditions: 10 μM compound, ambient temperature
# Experimental: Samples were held in the HPLC autosampler at ambient temperature. At approximately 0, 1, 2, 4, 8, 24, and 48 hours the samples were injected on the HPLC. Peak area and retention time were compared between injections. Data was log transformed and represented as half-life. DMSO was added as a co-solvent as needed for solubility.
# [2] = biological target: T1, human LYPLA1 (Homo sapiens, UniProt O75608); test: IC50 by gel-based competitive ABPP in situ, cultured HeLa cells; format: cell-based; conditions: 2 h, serum-supplemented medium
# T1 construct: endogenous human LYPLA1/2 in a HeLa soluble proteome; endogenous in cells; host or cells: HeLa (soluble proteome in vitro; cultured cells in situ)
# Experimental: (§1) Assay Overview: The purpose of this assay was to determine IC50 values of powder samples of test compounds for enzyme of interest activity in situ using a gel-based competitive ABPP assay. In this assay, cultured cells were treated with test compound, harvested, and lysed. The isolated soluble proteome fraction was reacted with FP-Rh and analyzed by SDS-PAGE as described above.
# (§2) Protocol Summary: To cultured HeLa cells (90% confluent) was added fresh DMEM (5 mL total volume; supplemented with 10% FCS) pre-mixed with DMSO or test compound. After 2 hours at 37° C., cells were harvested by scraping, washed twice with 10 mL DPBS, and homogenized by sonication in DPBS. The soluble fraction was isolated by centrifugation (100K×g, 45 minutes) and the protein concentration was adjusted to 1 mg/mL with DPBS. FP-Rh (1 μL of 50× stock in DMSO) was added to a final concentration of 2 μM in 50 μL total reaction volume. The reaction was incubated for 30 minutes at 25° C., quenched with 16 μL 4×SDS-PAGE loading buffer (reducing), separated by SDS-PAGE and visualized by in-gel fluorescent scanning. The percentage activity remaining was determined by measuring the integrated optical density of the enzymes of interest, and anti-target bands relative to a DMSO-only (no compound) control. […]
# [3] = biological target: T2, human LYPLA2 (Homo sapiens, UniProt O95372); test: as above; format: cell-based; conditions: 2 h, serum-supplemented medium
# T2 construct: endogenous human LYPLA1/2 in a HeLa soluble proteome; endogenous in cells; host or cells: HeLa (soluble proteome in vitro; cultured cells in situ)
# Experimental: as §1, §2
# [4] = Solubility in media (DMEM+10% FBS); format: physicochemical; conditions: plasma or biological fluid, kinetic from dmso stock, complete media (DMEM+10% FBS), 22° C., read-out: solubility in DMEM containing 10% serum
# Experimental: (§3) Solubility in Media: The solubility of compounds were tested in triplicate in complete media (DMEM+10% FBS). Per well, 198 μL PBS is added to a Millipore Solvinert Hydrophilic PTFE 96 well filter plate: pore size: 0.45 μm (MSRLN0450). Test compounds were introduced from 10 mM DMSO stock solutions (2 μL). The final concentration of DMSO was 1 percent. Samples were allowed to incubate at 22° C. for 18 hours. In the morning the plate was centrifuged where the soluble portion passed through the filter and was collected in a capture plate. The samples were analyzed by HPLC (Agilent 1100 with diode-array detector). Peak area was compared to a standard of known concentration.
# [5] = Solubility in PBS; format: physicochemical; conditions: phosphate buffered saline, aqueous buffer, kinetic from dmso stock, PBS pH 7.4, 1% DMSO, 22° C.
# Experimental: as §3, with “The” for “Solubility in Media: The”, “phosphate buffered saline (PBS), pH 7.4.” for “complete media (DMEM+10% FBS).”, “passes” for “passed”, “plate. Clotrimazole was included as a control to assure the assay was working properly.” for “plate.”, “HPLC.” for “HPLC (Agilent 1100 with diode-array detector).”
# [6] = biological target: T3, ABHD4 (Mus musculus, UniProt Q8VD66); test: Inhibition by gel-based competitive ABPP in vivo; conditions: 1-40 mg/kg i.p., 4 h, any tissue examined
# T3 construct: from tissue; host or cells: tissues of C57BL6 mice
# Experimental: Compound 26, Compound 34, and Compound 1 were administered across a dose range of 1-40 mg/kg to C57BL6 mice by intraperitoneal injection, and, after 4 hours, animals were sacrificed and tissues harvested for analysis by gel-based ABPP using the FP-Rh probe and the Compound 39 probe.
# T3 sequence (Q8VD66 whole entry): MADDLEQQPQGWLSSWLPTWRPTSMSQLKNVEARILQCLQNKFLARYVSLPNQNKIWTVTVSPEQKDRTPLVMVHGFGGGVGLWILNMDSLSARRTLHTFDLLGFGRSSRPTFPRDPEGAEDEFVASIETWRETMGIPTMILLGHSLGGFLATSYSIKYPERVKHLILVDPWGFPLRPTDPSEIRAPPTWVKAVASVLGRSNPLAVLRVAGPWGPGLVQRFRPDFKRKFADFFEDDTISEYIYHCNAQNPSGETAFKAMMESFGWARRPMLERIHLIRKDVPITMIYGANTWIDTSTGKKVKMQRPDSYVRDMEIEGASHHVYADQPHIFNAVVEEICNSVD
# T2 sequence (O95372 whole entry): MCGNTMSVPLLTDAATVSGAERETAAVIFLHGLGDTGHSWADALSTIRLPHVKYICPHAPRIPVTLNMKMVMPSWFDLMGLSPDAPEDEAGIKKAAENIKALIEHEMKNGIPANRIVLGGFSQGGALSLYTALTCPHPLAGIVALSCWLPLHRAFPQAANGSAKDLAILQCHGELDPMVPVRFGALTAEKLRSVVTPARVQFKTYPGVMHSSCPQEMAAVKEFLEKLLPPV
# T1 sequence (O75608 whole entry): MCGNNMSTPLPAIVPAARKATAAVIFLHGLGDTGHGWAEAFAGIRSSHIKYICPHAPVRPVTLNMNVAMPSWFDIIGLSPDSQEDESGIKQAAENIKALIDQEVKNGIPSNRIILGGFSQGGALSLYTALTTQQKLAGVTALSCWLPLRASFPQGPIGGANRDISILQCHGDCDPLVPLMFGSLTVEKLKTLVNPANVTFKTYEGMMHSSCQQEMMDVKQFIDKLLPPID
half-life at 10 µM [1] [min],pIC50 [2],pIC50 [3],solubility at 18 h [4] [µM],solubility at 18 h [5] [µM],SMILES,blockade of ABHD4 in vivo [6]
1140,7.06,6.84,46,18,"O=C(ON1C(=O)C2CN(C(=O)N3CCOCC3)CCN2C1=O)N1CCC(CCc2ccc(Cl)cc2)CC1 (stereo not drawn) [Compound 1, 7-(morpholine-4-carbonyl)-1,3-dioxohexahydroimidazo[1,5-a]pyrazin-2(3H)-yl 4-(4-chloro-phenethyl)piperidine-1-carboxylate]",–
–,–,–,–,–,"O=C(ON1C(=O)C2CN(Cc3ccc(Oc4ccccc4)cc3)CCN2C1=O)N1CCOCC1 (stereo not drawn) [Compound 34, 1,3-dioxo-7-(4-phenoxybenzyl)hexahydroimidazo[1,5-a]pyrazin-2(3H)-yl morpholine-4-carboxylate]",did not block the activity of ABHD4 in any tissue examined
